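Exposure lasted 48 hours, with cells grown in 96-well plates and compounds tested at five concentrations. Abbreviation: GI50, concentration required for 50% inhibition of growth. At the TGI there is no net growth.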

Test systems include SNB-19 CNS; U251 CNS; OVCAR-3 ovarian; SR leukemia; PC-3 prostate; SF-295 CNS; KM12 colon; RXF 393 renal.
What all share (assay): NCI-60 cell line screen, 48 h

Consider `CS(=O)(=O)CCNCc1coc(-c2ccc3ncnc(Nc4ccc(OCc5ccccc5)cc4)c3c2)c1`, for which the GI50 with SNB-19 CNS was 6400 nM; with U251 CNS, 4720 nM; with OVCAR-3 ovarian it was 3460 nM; in the assay on SR leukemia it was 4810 nM; in the assay on PC-3 prostate, 8950 nM; in the assay on SF-295 CNS, 4390 nM. Besides, the GI50 in the assay with KM12 colon is 4680 nM; in the assay on RXF 393 renal, 2910 nM. Further, the TGI with SNB-19 CNS was above 25 µM; in the assay with U251 CNS it was above 14.2 µM; in the assay with OVCAR-3 ovarian, 13.7 µM; in the assay on SR leukemia, 12.9 µM; in the assay on PC-3 prostate it was above 25 µM; in the assay on SF-295 CNS, 9.19 µM. Besides, the TGI was 11.9 µM with KM12 colon and 7.27 µM in the assay with RXF 393 renal.

In the case of `C=C(C)[C@@H]1CC[C@]2(COCCCN)CC[C@]3(C)[C@H](CC[C@@H]4[C@@](C)(CCCNCCCN)[C@H](C(=C)C)CC[C@]43C)[C@@H]12`, the GI50 with SNB-19 CNS is 1840 nM; in the assay with U251 CNS, 1700 nM; in the assay with OVCAR-3 ovarian, 1810 nM; in the assay with SR leukemia it was 1320 nM; in the assay with PC-3 prostate, 1700 nM; in the assay with SF-295 CNS it was 1940 nM. Further, the figures for the GI50 in the assay on KM12 colon and in the assay with RXF 393 renal were 1740 nM and 1590 nM, respectively. The TGI in the assay with SNB-19 CNS was determined as 3.56 µM; with U251 CNS, 3.19 µM; with OVCAR-3 ovarian, 3.36 µM; with SR leukemia, 3.59 µM; with PC-3 prostate, 3.25 µM; with SF-295 CNS, 3.83 µM. The TGI in the assay with KM12 colon is 3.14 µM; in the assay with RXF 393 renal it was 2.98 µM.

Regarding `O=C1C=CC(=O)C2C1C1(Cl)C(Cl)=C(Cl)C2(Cl)C1(Cl)Cl` (stereo not given), the GI50 in the assay with SNB-19 CNS was 11200 nM; in the assay with U251 CNS, 5760 nM; in the assay with OVCAR-3 ovarian, 2030 nM; with SR leukemia it was 2530 nM; in the assay with PC-3 prostate it was 2730 nM; in the assay with SF-295 CNS, 1910 nM. Moreover, the GI50 was 2630 nM with KM12 colon and 3660 nM in the assay with RXF 393 renal. The TGI was 25.4 µM in the assay on SNB-19 CNS; 19.1 µM in the assay on U251 CNS; 5.08 µM in the assay with OVCAR-3 ovarian; 12.3 µM in the assay with SR leukemia; 20 µM with PC-3 prostate; 6.62 µM with SF-295 CNS. The TGI is 8.95 µM in the assay with KM12 colon and 12 µM in the assay with RXF 393 renal.

As to `COC(=O)c1ccc2[nH]c(O)c(C(=Nc3ccc(N(C)C(=O)CN4CCN(C)CC4)cc3)c3ccc4c(c3)OCO4)c2c1`, the GI50 is 1060 nM with SNB-19 CNS; 884 nM in the assay on U251 CNS; 638 nM with OVCAR-3 ovarian; 232 nM in the assay with SR leukemia; 489 nM in the assay on PC-3 prostate; 754 nM with SF-295 CNS. In addition, the GI50 in the assay on KM12 colon was 42.9 nM; in the assay on RXF 393 renal, 360 nM. Also, the TGI in the assay with SNB-19 CNS was 6.05 µM; in the assay with U251 CNS, 2.5 µM; in the assay on OVCAR-3 ovarian, 2.23 µM; in the assay with SR leukemia, 2.93 µM; in the assay with PC-3 prostate it was 3.39 µM; with SF-295 CNS it was 2.16 µM. Besides, the TGI in the assay with KM12 colon came to 1.69 µM; in the assay on RXF 393 renal, 1.52 µM.

As to `COc1cccc2c1C(=N)c1c(O)c3c(c(O)c1C2=O)C[C@@](O)(C(C)=O)C[C@@H]3O[C@H]1C[C@H](N)[C@H](O)[C@H](C)O1`, the GI50 in the assay on SNB-19 CNS is 232 nM; in the assay on U251 CNS it was 144 nM; in the assay with OVCAR-3 ovarian, 1130 nM; in the assay on SR leukemia it was 21.7 nM; in the assay on PC-3 prostate, 1300 nM; in the assay with SF-295 CNS, 219 nM. In the assay on KM12 colon, the GI50 is 1320 nM. Also, the TGI was 2.92 µM in the assay with SNB-19 CNS; 2.14 µM in the assay on U251 CNS; 7.11 µM in the assay on OVCAR-3 ovarian; 6.08 µM in the assay with SR leukemia; 9.33 µM with PC-3 prostate; 1.27 µM in the assay on SF-295 CNS. The TGI with KM12 colon was found to be 8.68 µM; with RXF 393 renal, 3.58 µM.

On to `O=C(/C=C/c1ccccc1)Nc1ncc(Cc2ccccc2Cl)s1`, for which the GI50 is 404 nM in the assay with SNB-19 CNS; 397 nM with U251 CNS; 226 nM in the assay with OVCAR-3 ovarian; 153 nM in the assay with SR leukemia; 409 nM in the assay with PC-3 prostate; 282 nM with SF-295 CNS. In addition, the GI50 in the assay on KM12 colon is 288 nM; with RXF 393 renal, 223 nM. For the same compound, the TGI is above 100 µM in the assay on SNB-19 CNS; above 100 µM in the assay with U251 CNS; 0.63 µM with OVCAR-3 ovarian; above 100 µM in the assay on SR leukemia; above 100 µM in the assay with PC-3 prostate; 11.7 µM in the assay with SF-295 CNS. Also, the results for the TGI in the assay with KM12 colon and in the assay on RXF 393 renal were above 100 µM and 0.73 µM, respectively.

As to `O=C1C(=O)c2ccccc2C(O)=C1C(C1=C(O)c2ccccc2C(=O)C1=O)c1ccc(Cl)cc1`, the TGI in the assay with SNB-19 CNS was determined as 41.8 µM; with U251 CNS it was 16.3 µM; with OVCAR-3 ovarian it was 11.4 µM; in the assay with SR leukemia it was 24.7 µM; in the assay with PC-3 prostate, 57.7 µM; with SF-295 CNS it was 13.8 µM. For the same compound, the results for the TGI in the assay with KM12 colon and with RXF 393 renal were 25 µM and 18.4 µM, respectively.

Regarding `CC1(C)N=C(N)N=C(N)N1c1ccc(CCC(=O)Nc2ccc(S(=O)(=O)F)cc2)c(Cl)c1`, the GI50 in the assay with SNB-19 CNS is 5220 nM; with U251 CNS, 498 nM; in the assay on OVCAR-3 ovarian, 9860 nM; in the assay on SR leukemia, 179 nM; in the assay with PC-3 prostate, 92.6 nM; in the assay with SF-295 CNS, 1090 nM. Further, the GI50 in the assay on KM12 colon was 243 nM; in the assay on RXF 393 renal, above 45400 nM. Moreover, the TGI was above 100 µM with SNB-19 CNS; above 100 µM in the assay on U251 CNS; above 100 µM with OVCAR-3 ovarian; above 100 µM in the assay with SR leukemia; 49.7 µM with PC-3 prostate; above 100 µM in the assay with SF-295 CNS. In addition, the values for the TGI in the assay on KM12 colon and in the assay with RXF 393 renal were 28.3 µM and above 100 µM, respectively.

For `CCOc1cccc(/C=N/NC(=O)c2cccc(Nc3ccnc(C(F)(F)F)c3)c2)c1O`, the GI50 is 1630 nM in the assay with SNB-19 CNS; 886 nM with U251 CNS; 401 nM in the assay with OVCAR-3 ovarian; 212 nM in the assay with SR leukemia; 3280 nM with PC-3 prostate; 2400 nM with SF-295 CNS. The figures for the GI50 in the assay with KM12 colon and in the assay on RXF 393 renal were 1480 nM and 1660 nM, respectively. For the same compound, the TGI in the assay on SNB-19 CNS was above 100 µM; with U251 CNS it was above 47.1 µM; in the assay on OVCAR-3 ovarian, 24.4 µM; with SR leukemia, 8.67 µM; in the assay on PC-3 prostate, above 92.8 µM; with SF-295 CNS, 27.9 µM. Further, the results for the TGI with KM12 colon and with RXF 393 renal were 17.6 µM and 44.6 µM, respectively.

These data come from PubChem BioAssay (NCI).
